“Also recorded” adds a separate entry of the source. Where two headings read alike, the source gives them in different places.
Experiments:
[1] = target: T1, WT CB2 (Homo sapiens, UniProt P34972); experiment: pGlo-Sensor-22F cAMP accumulation assay, WT CB2; type: cell-based; conditions: for EC50: agonist dose-response on CB2, vehicle control (no Ec2la), read-out: pEC50/pIC50 values (converted)
T1 construct: expressed in transfected cells; host or cells: HEK293
Description: Compounds were drawn using ChemDraw.

[2] = target: CB2 mutant T153A (Homo sapiens, UniProt P34972, T153A); experiment: cAMP accumulation assay, CB2 mutant T153A; conditions: in the presence of JWH133
Sequence of CB2 mutant T153A (P34972 whole entry T153A): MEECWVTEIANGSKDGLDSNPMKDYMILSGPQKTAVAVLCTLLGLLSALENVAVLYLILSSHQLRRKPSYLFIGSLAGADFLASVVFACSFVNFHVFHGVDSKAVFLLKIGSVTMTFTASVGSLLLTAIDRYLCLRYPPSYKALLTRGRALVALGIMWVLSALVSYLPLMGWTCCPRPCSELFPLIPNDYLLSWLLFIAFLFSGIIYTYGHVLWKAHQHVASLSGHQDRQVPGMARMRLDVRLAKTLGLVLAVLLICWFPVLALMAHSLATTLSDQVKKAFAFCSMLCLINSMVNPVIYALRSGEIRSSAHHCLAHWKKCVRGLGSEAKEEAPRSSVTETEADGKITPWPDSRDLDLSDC
Description: (§2) Primers were designed for the following mutations: F72^2.42A, L125^3.44A, L126^3.45A, I129^3.48A, L133^3.52A, T153^4.45A, I156^4.48A, M157^4.49A, L160^4.52A, F197^5.46A, and L201^5.50A (Table S3). Polymerase chain reactions (PCR) using the Bio-Rad T100TM Thermal Cycler and Applied Biosystems Veriti 96 Well Thermal Cycler to introduce the desired mutations within 3× HA-CB2 (cDNA).
(§3) HEK293 (ATCC CRL-1573) adherent cells were passaged using Dulbecco’s Modified Eagle’s Medium (DMEM)-high glucose (Sigma-Aldrich). This DMEM was supplemented with penicillin (100 U/mL), streptomycin (100 μg/mL), and heat inactivated fetal bovine serum (FBS, 10%) (PAN-Biotech). […]
(§4) After 24 h of incubation, the transfected HEK293 cells were then subject to starvation (2 h) with serum-free DMEM (100 μL/well). […] Bioluminescence was then measured using the CLARIOstar Plus Plate Reader (BMG LabTech, Germany). Prior to injecting the treatment ligands, approximately 5–10 basal readings were performed until stabilization was reached. Bioluminescence was measured for a total of 45 cycles (1 min per cycle, 1 s integration time, without filter, a fixed gain of 3000 and autofocus).
(§5) Data from signaling experiments were analyzed using GraphPad Prism, version 9.4.1 software (GraphPad Software, Inc.). […]

[3] = target: CB2 mutant I129A (Homo sapiens, UniProt P34972, I129A); experiment: cAMP accumulation assay, CB2 mutant I129A; conditions: in the presence of JWH133
Sequence of CB2 mutant I129A (P34972 whole entry I129A): as the sequence (P34972 whole entry T153A) above, with I129A, A153T counted along it
Description: as §2, §3, §4, §5

[4] = target: CB2 mutant L125A (Homo sapiens, UniProt P34972, L125A); experiment: cAMP accumulation assay, CB2 mutant L125A; conditions: in the presence of JWH133
Sequence of CB2 mutant L125A (P34972 whole entry L125A): as the sequence (P34972 whole entry T153A) above, with L125A, A153T counted along it
Description: as §2, §3, §4, §5

[5] = target: CB2 mutant F197A (Homo sapiens, UniProt P34972, F197A); experiment: cAMP accumulation assay, CB2 mutant F197A; conditions: in the presence of JWH133
Sequence of CB2 mutant F197A (P34972 whole entry F197A): as the sequence (P34972 whole entry T153A) above, with A153T, F197A counted along it
Description: as §2, §3, §4, §5

[6] = target: CB2 mutant L160A (Homo sapiens, UniProt P34972, L160A); experiment: cAMP accumulation assay, CB2 mutant L160A; conditions: in the presence of JWH133
Sequence of CB2 mutant L160A (P34972 whole entry L160A): as the sequence (P34972 whole entry T153A) above, with A153T, L160A counted along it
Description: as §2, §3, §4, §5

[7] = target: CB2 mutant L126A (Homo sapiens, UniProt P34972, L126A); experiment: cAMP accumulation assay, CB2 mutant L126A; conditions: in the presence of JWH133
Sequence of CB2 mutant L126A (P34972 whole entry L126A): as the sequence (P34972 whole entry T153A) above, with L126A, A153T counted along it
Description: as §2, §3, §4, §5

[8] = target: CB2 mutant M157A (Homo sapiens, UniProt P34972, M157A); experiment: cAMP accumulation assay, CB2 mutant M157A; conditions: in the presence of JWH133
Sequence of CB2 mutant M157A (P34972 whole entry M157A): as the sequence (P34972 whole entry T153A) above, with A153T, M157A counted along it
Description: as §2, §3, §4, §5

[9] = target: T1, WT CB2; experiment: AlphaLISA SureFire Ultra p-ERK 1/2 assay, WT CB2; type: cell-based; conditions: 1 μM JWH133 + 10 μM Ec2la
Description: (§1) Culture media were removed and replaced with allosteric modulator (45 μL/well) prepared in serum-free DMEM and incubated (RT, 30 min). The cells were then stimulated with agonist (5 μL/well) prepared in serum-free DMEM and incubated (RT, 10 min). All subsequent reagents were used from the AlphaLISA SureFire Ultra p-ERK 1/2 (Thr202/Tyr204) Assay Kit (PerkinElmer). The medium was removed, freshly prepared 1× lysis buffer (50 μL/well) was added, and the plate was agitated on a plate shaker (RT, 10 min, 350 rpm). The lysates (10 μL) were transferred to a 384-well OptiPlate (PerkinElmer), and the acceptor mix (5 μL) was added to each well under subdued light. The plate was sealed, covered with foil, and incubated (RT, 1 h). Donor mix (5 μL) was added to each well under subdued light. The plate was sealed, covered with foil, and incubated in the dark (RT, 1 h). The plate was read using CLARIOstar Plus Plate Reader (BMG LabTech, Germany) using standard AlphaLISA settings with an […].

[10] = test system: CB1; parameters: method as in PMID 29990428; conditions: CB1, Chinese hamster ovary cells; cited from earlier work
[11] = target: CB2 mutant L201A (Homo sapiens, UniProt P34972, L201A); experiment: cAMP accumulation assay, CB2 mutant L201A; conditions: in the presence of JWH133
Sequence of CB2 mutant L201A (P34972 whole entry L201A): as the sequence (P34972 whole entry T153A) above, with A153T, L201A counted along it
Description: as §2, §3, §4, §5

[12] = target: CB2 mutant L133A (Homo sapiens, UniProt P34972, L133A); experiment: cAMP accumulation assay, CB2 mutant L133A; conditions: in the presence of JWH133
Sequence of CB2 mutant L133A (P34972 whole entry L133A): as the sequence (P34972 whole entry T153A) above, with L133A, A153T counted along it
Description: as §2, §3, §4, §5

[13] = test system: CB2; parameters: method as in PMID 29990428; conditions: agonists CP 55,940 and 2-AG; cited from earlier work
[14] = test system: CB2 single mutants; experiment: AlphaLISA SureFire Ultra p-ERK 1/2 assay, CB2 single mutants; type: cell-based, human; conditions: 1 μM JWH133 + 10 μM Ec2la
Description: as §1

[15] = test system: CB2; parameters: method as in PMID 29990428; conditions: CB2, Chinese hamster ovary cells; cited from earlier work
[16] = test system: CB2 double mutants; experiment: AlphaLISA SureFire Ultra p-ERK 1/2 assay, CB2 double mutants; type: cell-based, human; conditions: 1 μM JWH133 + 10 μM Ec2la
Description: as §1

[17] = target: CB2 mutant F72A (Homo sapiens, UniProt P34972, F72A); experiment: cAMP accumulation assay, CB2 mutant F72A; conditions: in the presence of JWH133
Sequence of CB2 mutant F72A (P34972 whole entry F72A): as the sequence (P34972 whole entry T153A) above, with F72A, A153T counted along it
Description: as §2, §3, §4, §5

[18] = test system: CB1 receptor; parameters: method as in PMID 22343625; conditions: cited from earlier work
[19] = test system: CB1 receptor; parameters: method as in PMID 22343625; conditions: CB1, in the presence of orthosteric ligand CP 55,940; cited from earlier work

T1 sequence (P34972 whole entry): as the sequence (P34972 whole entry T153A) above, with A153T counted along it

## CCCCC/C=C\C/C=C\C/C=C\C/C=C\CCCC(=O)OC(CO)CO [2-AG, 2-arachidonoylglycerol]
[1]; Figure S2
  EC50: 48.3 nM
[1]; Figure S3
  EC50: 202 nM

## C=C(C)[C@@H]1CCC(C)=C[C@H]1c1c(O)cc(CCCCC)cc1O [CBD, Cannabidiol]
[2]
  allosteric signal in cAMP assay: still demonstrating an allosteric effect
[3]
  allosteric signal in cAMP assay: loss and/or alteration in the allosteric signal
[1]
  allosteric effect on cAMP signaling: acts as a NAM
  orthosteric activity in cAMP assay: acting as an agonist
[4]
  allosteric signal in cAMP assay: loss and/or alteration in the allosteric signal
[5]
  allosteric signal in cAMP assay: loss and/or alteration in the allosteric signal
[6]
  allosteric signal in cAMP assay: still demonstrating an allosteric effect
[7]
  allosteric signal in cAMP assay: loss and/or alteration in the allosteric signal
[8]
  allosteric signal in cAMP assay: loss and/or alteration in the allosteric signal

## Cc1c(Br)cn(Cc2ccc(F)cc2)c(=O)c1NC(=O)C1CCCCCC1 [Ec2la]
[2]
  allosteric signal in cAMP assay: still demonstrating an allosteric effect
[3]
  allosteric signal in cAMP assay: loss and/or alteration in allosteric signal
[9]
  allosteric effect on p-ERK 1/2 signaling: acts as a NAM
[10]
  modality in [3H]CP 55,940 binding studies: PAM
[1]
  allosteric effect on cAMP signaling: possible PAM-antagonistic effect; also recorded: acts as a PAM
  allosteric effect on cAMP signaling at nanomolar concentrations: did not demonstrate an allosteric effect; also recorded: no allosteric effect
[1]; WT CB2, in the presence of 2-AG, Ec2la 1 and 10 μM
  allosteric effect on cAMP signaling: negative allosteric effect; also recorded: negative allosteric shift
[1]; WT CB2, in the presence of CP 55,940, Ec2la 1 and 10 μM
  allosteric effect on cAMP signaling: slight negative allosteric effect; also recorded: negative allosteric shift
[1]; WT CB2, in the presence of JWH133, modulator 0.1, 1, 10 μM
  allosteric effect on cAMP signaling: acts like a NAM
[11]
  allosteric signal in cAMP assay: still demonstrating an allosteric effect
[12]
  allosteric signal in cAMP assay: loss and/or alteration in allosteric signal
[4]
  allosteric signal in cAMP assay: still demonstrating an allosteric effect
[5]
  allosteric signal in cAMP assay: loss and/or alteration in allosteric signal
[13]
  effect on agonist-stimulated [35S]GTPγS binding: greatly enhanced
[14]
  allosteric effect on p-ERK 1/2 signaling: either no effect or an increase in the p-ERK 1/2 signal
[15]
  modality in [3H]CP 55,940 binding studies: PAM
[6]
  allosteric signal in cAMP assay: loss and/or alteration in allosteric signal
[16]
  allosteric effect on p-ERK 1/2 signaling: either no effect to the allosteric modulator-induced changes on the signal or a slight decrease in the signal
[17]
  allosteric signal in cAMP assay: loss and/or alteration in allosteric signal
[7]
  allosteric signal in cAMP assay: loss and/or alteration in allosteric signal
[8]
  allosteric signal in cAMP assay: loss and/or alteration in allosteric signal

## CCc1c(C(=O)NCCc2ccc(N3CCCCC3)cc2)[nH]c2ccc(Cl)cc12 [ORG27569]
[18]
  allosteric effect in ERK 1/2 signaling: positive allosteric effect
[19]
  allosteric effect with radioligand binding: negative allosteric effect
